# Tests used:
# [1] = target: Dual specificity protein kinase CLK4 (Homo sapiens, UniProt Q9HAZ1)
# [2] = target: Casein kinase I isoform epsilon (Homo sapiens, UniProt P49674)
# [3] = target: T1, Dual specificity tyrosine-phosphorylation-regulated kinase 2 (Homo sapiens, UniProt Q92630)
# T1 sequence (Q92630 whole entry): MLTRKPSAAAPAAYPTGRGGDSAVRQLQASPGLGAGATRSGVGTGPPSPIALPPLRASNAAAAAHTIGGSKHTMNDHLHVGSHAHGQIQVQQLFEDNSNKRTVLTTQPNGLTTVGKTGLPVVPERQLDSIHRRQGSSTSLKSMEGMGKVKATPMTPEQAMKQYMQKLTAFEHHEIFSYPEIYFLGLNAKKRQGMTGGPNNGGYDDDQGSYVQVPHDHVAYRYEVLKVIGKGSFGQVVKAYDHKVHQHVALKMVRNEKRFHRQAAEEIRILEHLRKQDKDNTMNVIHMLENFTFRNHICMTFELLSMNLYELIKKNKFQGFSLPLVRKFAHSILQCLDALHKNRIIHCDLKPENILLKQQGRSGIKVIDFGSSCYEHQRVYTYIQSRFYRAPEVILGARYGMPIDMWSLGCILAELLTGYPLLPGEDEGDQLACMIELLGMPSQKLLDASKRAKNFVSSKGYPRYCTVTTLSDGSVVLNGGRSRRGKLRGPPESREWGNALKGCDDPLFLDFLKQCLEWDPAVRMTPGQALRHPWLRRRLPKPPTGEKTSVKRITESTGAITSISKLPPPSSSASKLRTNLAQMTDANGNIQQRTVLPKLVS
# [4] = target: T2, Dual specificity tyrosine-phosphorylation-regulated kinase 4 (Homo sapiens, UniProt Q9NR20)
# T2 sequence (Q9NR20 whole entry): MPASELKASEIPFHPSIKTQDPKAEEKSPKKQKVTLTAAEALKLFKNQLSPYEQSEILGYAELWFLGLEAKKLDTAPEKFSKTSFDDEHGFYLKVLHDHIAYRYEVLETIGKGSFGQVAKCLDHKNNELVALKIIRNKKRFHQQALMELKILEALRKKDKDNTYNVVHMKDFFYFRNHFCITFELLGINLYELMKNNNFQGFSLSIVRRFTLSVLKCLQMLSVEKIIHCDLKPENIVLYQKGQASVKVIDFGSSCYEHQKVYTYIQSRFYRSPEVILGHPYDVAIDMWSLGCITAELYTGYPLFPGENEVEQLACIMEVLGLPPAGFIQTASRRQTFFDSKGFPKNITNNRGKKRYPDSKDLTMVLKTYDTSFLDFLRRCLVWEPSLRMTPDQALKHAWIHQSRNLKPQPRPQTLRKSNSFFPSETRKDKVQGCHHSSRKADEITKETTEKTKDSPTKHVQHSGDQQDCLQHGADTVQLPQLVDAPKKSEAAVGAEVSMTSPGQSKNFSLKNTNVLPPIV
# [5] = target: Glycogen synthase kinase-3 beta (Homo sapiens, UniProt P49841); assay type: cell-based, Sf9
# Chain of Glycogen synthase kinase-3 beta (P49841 whole entry): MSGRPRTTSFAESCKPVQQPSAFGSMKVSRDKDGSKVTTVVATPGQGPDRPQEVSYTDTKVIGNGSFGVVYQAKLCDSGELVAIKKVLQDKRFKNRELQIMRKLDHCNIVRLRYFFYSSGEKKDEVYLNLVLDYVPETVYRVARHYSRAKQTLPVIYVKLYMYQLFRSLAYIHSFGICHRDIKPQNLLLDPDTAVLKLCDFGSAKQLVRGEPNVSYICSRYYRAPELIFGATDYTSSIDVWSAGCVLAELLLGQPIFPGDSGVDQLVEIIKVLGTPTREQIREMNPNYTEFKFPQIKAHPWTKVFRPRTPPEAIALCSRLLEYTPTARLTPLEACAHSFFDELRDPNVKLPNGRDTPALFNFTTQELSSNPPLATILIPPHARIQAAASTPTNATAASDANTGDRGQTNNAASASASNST
# [6] = target: Dual specificity protein kinase CLK2 (Homo sapiens, UniProt P49760)
# Chain of Dual specificity protein kinase CLK2 (P49760 whole entry): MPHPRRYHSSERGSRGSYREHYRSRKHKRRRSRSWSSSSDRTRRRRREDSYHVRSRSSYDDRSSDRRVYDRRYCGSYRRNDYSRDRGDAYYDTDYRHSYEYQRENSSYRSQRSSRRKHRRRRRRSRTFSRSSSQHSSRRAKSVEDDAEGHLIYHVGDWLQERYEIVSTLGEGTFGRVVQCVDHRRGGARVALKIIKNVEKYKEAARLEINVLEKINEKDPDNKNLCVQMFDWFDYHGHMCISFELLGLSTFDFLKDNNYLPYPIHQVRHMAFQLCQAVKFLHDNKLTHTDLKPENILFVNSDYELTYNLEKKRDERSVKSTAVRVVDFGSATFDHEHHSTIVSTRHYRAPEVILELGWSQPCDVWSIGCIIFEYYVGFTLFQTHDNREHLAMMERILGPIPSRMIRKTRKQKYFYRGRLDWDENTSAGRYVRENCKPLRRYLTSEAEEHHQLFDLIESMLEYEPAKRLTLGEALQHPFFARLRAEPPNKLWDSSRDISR
# [7] = target: Cyclin-dependent kinase 5/CDK5 activator 1 (Homo sapiens, UniProt Q00535); assay type: cell-based, Sf9
# Chain of Cyclin-dependent kinase 5/CDK5 activator 1 (Q00535 whole entry): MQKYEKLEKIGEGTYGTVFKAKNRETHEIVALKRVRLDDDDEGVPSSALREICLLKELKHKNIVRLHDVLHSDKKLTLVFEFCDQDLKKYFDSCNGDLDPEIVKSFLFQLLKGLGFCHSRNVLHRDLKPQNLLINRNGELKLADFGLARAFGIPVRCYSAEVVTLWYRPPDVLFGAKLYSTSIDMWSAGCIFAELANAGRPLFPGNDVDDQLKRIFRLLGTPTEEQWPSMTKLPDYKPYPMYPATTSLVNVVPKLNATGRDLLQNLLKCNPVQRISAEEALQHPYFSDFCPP
# Chain of Cyclin-dependent kinase 5/CDK5 activator 1 (Q15078 whole entry, further chain): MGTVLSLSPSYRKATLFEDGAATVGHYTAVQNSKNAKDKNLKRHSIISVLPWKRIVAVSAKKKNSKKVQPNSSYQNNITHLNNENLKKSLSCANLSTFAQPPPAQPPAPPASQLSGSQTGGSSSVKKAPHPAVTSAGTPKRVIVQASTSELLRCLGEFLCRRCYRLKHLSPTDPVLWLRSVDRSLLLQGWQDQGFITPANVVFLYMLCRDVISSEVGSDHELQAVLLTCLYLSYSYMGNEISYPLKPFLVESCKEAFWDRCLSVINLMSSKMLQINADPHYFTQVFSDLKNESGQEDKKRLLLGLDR
# [8] = target: Dual specificity protein kinase CLK3 (Homo sapiens, UniProt P49761); assay type: cell-based, Sf9
# Chain of Dual specificity protein kinase CLK3 (P49761 whole entry): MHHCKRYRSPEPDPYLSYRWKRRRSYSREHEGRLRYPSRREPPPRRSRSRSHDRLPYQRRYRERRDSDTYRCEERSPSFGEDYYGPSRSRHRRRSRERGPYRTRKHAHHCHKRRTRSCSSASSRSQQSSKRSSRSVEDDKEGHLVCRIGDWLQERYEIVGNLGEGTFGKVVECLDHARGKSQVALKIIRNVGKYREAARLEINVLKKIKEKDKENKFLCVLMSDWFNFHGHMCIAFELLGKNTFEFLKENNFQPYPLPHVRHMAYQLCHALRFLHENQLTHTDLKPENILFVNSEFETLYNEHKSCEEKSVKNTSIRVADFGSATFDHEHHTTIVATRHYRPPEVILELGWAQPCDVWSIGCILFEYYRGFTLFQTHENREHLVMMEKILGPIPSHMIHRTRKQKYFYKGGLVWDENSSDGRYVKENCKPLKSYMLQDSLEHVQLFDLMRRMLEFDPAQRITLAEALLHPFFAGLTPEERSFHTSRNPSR
# [9] = target: Dual specificity protein kinase CLK1 (Homo sapiens, UniProt P49759); assay type: cell-based, Sf9
# Chain of Dual specificity protein kinase CLK1 (P49759 whole entry): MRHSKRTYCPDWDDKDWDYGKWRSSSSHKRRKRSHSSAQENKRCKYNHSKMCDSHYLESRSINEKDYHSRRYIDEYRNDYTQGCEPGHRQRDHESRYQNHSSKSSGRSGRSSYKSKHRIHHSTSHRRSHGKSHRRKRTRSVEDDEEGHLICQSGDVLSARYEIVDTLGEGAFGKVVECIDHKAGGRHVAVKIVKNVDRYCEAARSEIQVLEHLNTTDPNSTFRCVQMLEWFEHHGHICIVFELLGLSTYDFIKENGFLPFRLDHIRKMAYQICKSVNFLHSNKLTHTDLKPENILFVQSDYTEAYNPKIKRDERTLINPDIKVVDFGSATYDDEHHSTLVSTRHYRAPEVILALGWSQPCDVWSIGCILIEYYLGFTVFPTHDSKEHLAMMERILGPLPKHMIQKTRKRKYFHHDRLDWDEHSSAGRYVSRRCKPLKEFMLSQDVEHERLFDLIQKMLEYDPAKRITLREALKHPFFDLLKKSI
# [10] = target: T3, Dual specificity tyrosine-phosphorylation-regulated kinase 3 (Homo sapiens, UniProt O43781)
# T3 sequence (O43781 whole entry): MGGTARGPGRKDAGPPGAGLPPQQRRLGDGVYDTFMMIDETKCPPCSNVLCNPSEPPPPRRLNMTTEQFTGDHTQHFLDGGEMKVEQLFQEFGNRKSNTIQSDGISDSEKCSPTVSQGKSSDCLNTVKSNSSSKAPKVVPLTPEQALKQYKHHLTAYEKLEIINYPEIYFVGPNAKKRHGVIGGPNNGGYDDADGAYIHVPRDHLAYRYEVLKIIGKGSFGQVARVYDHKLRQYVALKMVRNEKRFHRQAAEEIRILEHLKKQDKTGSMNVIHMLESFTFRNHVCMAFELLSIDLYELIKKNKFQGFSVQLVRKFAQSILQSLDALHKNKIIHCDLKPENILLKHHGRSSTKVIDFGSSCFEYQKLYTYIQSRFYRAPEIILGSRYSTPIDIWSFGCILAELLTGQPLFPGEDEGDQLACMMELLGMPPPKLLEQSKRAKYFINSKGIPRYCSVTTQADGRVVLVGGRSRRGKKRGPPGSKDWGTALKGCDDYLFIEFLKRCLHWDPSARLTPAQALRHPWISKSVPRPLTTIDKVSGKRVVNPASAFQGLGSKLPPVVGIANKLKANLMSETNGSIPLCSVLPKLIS
# Chain of Dual specificity protein kinase CLK4 (Q9HAZ1 whole entry, canonical isoform): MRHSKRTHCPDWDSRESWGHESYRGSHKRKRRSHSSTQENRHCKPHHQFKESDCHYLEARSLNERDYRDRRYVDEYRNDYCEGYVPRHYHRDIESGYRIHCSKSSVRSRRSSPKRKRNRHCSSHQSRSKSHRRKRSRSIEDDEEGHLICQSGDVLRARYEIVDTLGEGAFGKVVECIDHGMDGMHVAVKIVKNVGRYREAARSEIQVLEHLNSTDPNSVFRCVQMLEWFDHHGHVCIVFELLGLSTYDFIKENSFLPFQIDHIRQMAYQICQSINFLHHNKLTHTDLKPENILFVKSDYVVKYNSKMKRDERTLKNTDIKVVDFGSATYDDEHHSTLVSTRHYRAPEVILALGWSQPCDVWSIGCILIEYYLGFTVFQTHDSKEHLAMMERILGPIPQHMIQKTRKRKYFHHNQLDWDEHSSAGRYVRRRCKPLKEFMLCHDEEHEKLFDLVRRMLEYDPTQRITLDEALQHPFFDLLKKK
# Chain of Casein kinase I isoform epsilon (P49674 whole entry, canonical isoform): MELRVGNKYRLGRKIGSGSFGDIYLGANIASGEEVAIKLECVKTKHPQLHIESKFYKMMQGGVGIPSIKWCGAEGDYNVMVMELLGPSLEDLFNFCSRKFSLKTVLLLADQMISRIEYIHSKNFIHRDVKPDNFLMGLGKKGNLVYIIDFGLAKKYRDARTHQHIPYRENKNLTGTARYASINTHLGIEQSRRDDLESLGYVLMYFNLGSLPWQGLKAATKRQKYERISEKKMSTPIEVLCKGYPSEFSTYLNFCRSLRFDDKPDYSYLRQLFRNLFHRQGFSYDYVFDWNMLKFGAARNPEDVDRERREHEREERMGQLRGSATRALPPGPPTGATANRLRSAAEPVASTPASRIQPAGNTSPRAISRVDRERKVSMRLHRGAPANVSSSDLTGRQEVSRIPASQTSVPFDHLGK
SMILES,IC50 [1],IC50 [2],IC50 [3],IC50 [4],IC50 [5],IC50 [6],IC50 [7],IC50 [8],IC50 [9],IC50 [10]
CC(C)C[C@H](COC1CC1)NC1=N/C(=C\c2ccc3ncsc3c2)C(=O)N1,5 nM,> 10000 nM,125 nM,1380 nM,3600 nM,121 nM,> 10000 nM,211 nM,17 nM,–
COC(=O)[C@@H](NC1=N/C(=C\c2ccc3ncsc3c2)C(=O)N1)C(C)C,–,> 10000 nM,328 nM,–,8240 nM,–,> 10000 nM,791 nM,16 nM,560 nM
COC(=O)[C@H](Cc1ccccc1)NC1=N/C(=C\c2ccc3ncsc3c2)C(=O)N1,–,> 10000 nM,216 nM,445 nM,> 10000 nM,–,> 10000 nM,1850 nM,28 nM,–
O=C1NC(Nc2cccc(C(F)(F)F)c2)=N/C1=C\c1ccc2ncsc2c1,–,> 10000 nM,2500 nM,> 10000 nM,> 10000 nM,696 nM,> 10000 nM,7030 nM,193 nM,5730 nM
C[C@@H](NC1=N/C(=C\c2ccc3ncsc3c2)C(=O)N1)C1CCCCC1,36 nM,> 10000 nM,3610 nM,6000 nM,> 10000 nM,304 nM,> 10000 nM,3020 nM,44 nM,–
CC(C)(C)OC[C@H](NC1=N/C(=C\c2ccc3ncsc3c2)C(=O)N1)c1ccccc1,–,> 10000 nM,1720 nM,–,9970 nM,121 nM,> 10000 nM,2100 nM,18 nM,–
O=C1NC(NC2CCOCC2)=N/C1=C\c1ccc2ncsc2c1,–,> 10000 nM,–,1260 nM,> 10000 nM,–,> 10000 nM,1280 nM,24 nM,1670 nM
CC(C)C[C@H](CO)NC1=N/C(=C\c2ccc3ncsc3c2)C(=O)N1,–,> 10000 nM,953 nM,764 nM,2520 nM,–,> 10000 nM,484 nM,19 nM,394 nM
O=C1NC(NC[C@@H](O)c2ccccc2)=N/C1=C\c1ccc2ncsc2c1,–,–,16 nM,181 nM,2600 nM,–,> 10000 nM,–,13 nM,–
CC(C)C[C@H](CF)NC1=N/C(=C\c2ccc3ncsc3c2)C(=O)N1,–,> 10000 nM,433 nM,927 nM,1560 nM,27 nM,> 10000 nM,403 nM,9 nM,657 nM
CC(C)C[C@@H](CO)NC1=N/C(=C\c2ccc3ncsc3c2)C(=O)N1,–,> 10000 nM,4980 nM,6490 nM,9370 nM,–,> 10000 nM,546 nM,49 nM,745 nM
O=C1NC(NC2CCCCC2)=N/C1=C\c1ccc2scnc2c1,7160 nM,> 10000 nM,> 10000 nM,–,> 10000 nM,> 10000 nM,> 10000 nM,> 10000 nM,> 10000 nM,–
O=C1NC(NC2CCCCC2)=N/C1=C\c1ccc2[nH]cnc2c1,37 nM,> 10000 nM,3280 nM,1860 nM,> 10000 nM,1370 nM,> 10000 nM,1910 nM,883 nM,–
CN1CC[C@](C)(NC2=N/C(=C\c3ccc4ncsc4c3)C(=O)N2)C1=O (stereo in doubt),–,> 10000 nM,1720 nM,1680 nM,> 10000 nM,450 nM,> 10000 nM,927 nM,125 nM,1480 nM
CN1CCN(c2cnc(NC3=N/C(=C\c4ccc5ncsc5c4)C(=O)N3)cn2)CC1,29 nM,> 10000 nM,798 nM,1130 nM,4120 nM,121 nM,> 10000 nM,2130 nM,55 nM,–
CC(C)C[C@@H](CF)NC1=N/C(=C\c2ccc3ncsc3c2)C(=O)N1,–,> 10000 nM,263 nM,385 nM,6290 nM,33 nM,> 10000 nM,1390 nM,7 nM,227 nM
C[C@@H]1CCCC[C@H]1NC1=N/C(=C\c2ccc3ncsc3c2)C(=O)N1 (racemic),–,> 10000 nM,549 nM,538 nM,8360 nM,114 nM,> 10000 nM,914 nM,17 nM,531 nM
CN1CC[C@@](C)(NC2=N/C(=C\c3ccc4ncsc4c3)C(=O)N2)C1=O (stereo in doubt),–,> 10000 nM,795 nM,1700 nM,1740 nM,28 nM,> 10000 nM,1130 nM,11 nM,390 nM
O=C1NC(NC[C@H](O)c2ccccc2)=N/C1=C\c1ccc2ncsc2c1,–,–,417 nM,4320 nM,> 10000 nM,–,> 10000 nM,–,12 nM,–
COC(=O)[C@@H](Cc1ccccc1)NC1=N/C(=C\c2ccc3ncsc3c2)C(=O)N1,–,> 10000 nM,8380 nM,6820 nM,> 10000 nM,–,> 10000 nM,> 10000 nM,122 nM,–
CN(C)CC(NC1=N/C(=C\c2ccc3ncsc3c2)C(=O)N1)c1ccccc1 (racemic),104 nM,> 10000 nM,> 10000 nM,8730 nM,6770 nM,590 nM,> 10000 nM,4120 nM,–,1500 nM
COCC(Cc1ccccc1)NC1=N/C(=C\c2ccc3ncsc3c2)C(=O)N1 (centres undefined),12 nM,> 10000 nM,400 nM,374 nM,4250 nM,99 nM,> 10000 nM,808 nM,–,2380 nM
O=C1CC[C@H](NC2=N/C(=C\c3ccc4ncsc4c3)C(=O)N2)CN1,22 nM,> 10000 nM,664 nM,3260 nM,8180 nM,469 nM,> 10000 nM,1160 nM,–,346 nM
O=C1NC(NC2CC3(CCC3)C2)=N/C1=C\c1ccc2ncsc2c1,–,> 10000 nM,1080 nM,944 nM,4570 nM,183 nM,> 10000 nM,212 nM,17 nM,873 nM
CCCCCCc1ccc(NC2=N/C(=C\c3ccc4ncsc4c3)C(=O)N2)cc1,3130 nM,> 10000 nM,> 10000 nM,> 10000 nM,> 10000 nM,14200 nM,> 10000 nM,> 10000 nM,–,> 10000 nM
